Measured values taken from US5198419A, “Formulated medicines for enhancing the efficacy of beta-lactam antibiotics in prophylaxis and treatment against infectious disease due to pathogenic bacteria” (Immuno Japan Inc., priority 1989, dated 1993).

Key:
[1] = tested on: Staphylococcus aureus 209P; assay: Example 9: time-schedule of lactoferrin administration and efficacy of amoxicillin; type: in vivo, mice, ddY
Protocol: (§1) For ED50 values, a range of amounts of antibiotics is given in the examples (e.g., penicillin G: 0.4, 0.2, 0.1, 0.05 mg/mouse). To calculate the ED50, groups of mice in the monotherapy groups and groups of mice in the combined therapy groups received the indicated amount of antibiotic (e.g., one group received 0.4 mg/mouse of penicillin G, one group received 0.2 mg/mouse of penicillin G, one group received 0.1 mg/mouse of penicillin G, one group received 0.05 mg/mouse of penicillin G).
The effect of time-schedule of lactoferrin administration on the potentiation of antibiotic efficacy was examined using an experimental model similar to Example 1. Male ddY mice (n=10), five weeks old, weighing an average of 21.9 g, were used in this experiment. On day 0 all the mice were intraperitoneally injected with 1.2×10^5 CFU/mouse of Staphylococcus aureus 209P. Amoxicillin ([…], 0.625 mg/mouse) was orally given one hour after the injection.

[2] = tested on: Klebsiella pneumoniae 3K25; assay: Example 7: experimental infection in mice, cefaclor with or without native lactoferrin; type: in vivo, strain ddY; conditions: Klebsiella pneumoniae, 3K25, po, 168 h, 1.5 × 10^6 CFU/mouse
[3] = tested on: Klebsiella pneumoniae strain 3K25; assay: Example 3: experimental infection in mice, cefaclor with or without hololactoferrin; type: in vivo, strain ICR; conditions: p.o. 1 h after 1×10^6 CFU/mouse
Protocol: as §1
Sixty male mice, strain ICR, five weeks of age, weighing 21.3±1.5 g (mean±the standard deviation) were randomly allocated into ten groups (n=6), and intraperitoneally injected with Klebsiella pneumoniae strain 3K25, 1×10^6 CFU/mouse. One hour after the injection, the first group was orally given 0.2 ml of physiological saline, the second group orally given hololactoferrin (100% ferric ion saturated lactoferrin, 0.4 mg/mouse), the third through the sixth groups orally given cefaclor (2.0, 1.0, 0.5 and 0.25 mg/mouse each) in 0.2 ml of saline, and the seventh through the tenth groups orally given cefaclor (2.0, 1.0, 0.5 and 0.25 mg/mouse each) and hololactoferrin (100% iron saturated lactoferrin, 0.4 mg/mouse) in 0.2 ml of saline. The mice were fed ad libitum and observed for one week under the same conditions as described in Example 1.

bacteria in urine = assay: Example 11: patients with chronic urinary tract infection, cefaclor with or without apolactoferrin; type: in vivo, human patients; conditions: four weeks
Protocol: Seventeen patients (male 6, female 11, an average 63.5 years old) with chronic urinary tract infection were randomly allocated into two groups. All these patients excreted at least one species of bacteria in their urine for longer than four weeks, although they were treated orally with antibacterial agents. The first group (n=9) was treated for four weeks with 1,200 mg of cefaclor (400 mg, three times a day) and the second group (n=8) with the same dose of cefaclor (three times a day) combined with 600 mg of apolactoferrin (200 mg, three times a day). Urine specimens were collected every one week and the species of bacteria were identified and the quantity of excreted bacteria determined.

Str. epidermids FT = assay: Example 10: experimental infection in mice, cefazolin with or without lactoferrin; type: in vivo; conditions: for ED50: 1000 MLD i.p.
Protocol: as §1
(§2) The potentiation of antibiotic efficacy by lactoferrin was examined using an infection model similar to Example 1. The antibiotics and lactoferrin were administered immediately after the injection (see Table 8). […] Lactoferrin (0.4 mg/mouse) potentiates the efficacies of the four beta-lactam antibiotics used: penicillin G against Streptococcus pyogenes infection was potentiated by 4.6 fold, cefazolin against S. epidermidis by 3.1 fold, methicillin against Diplococcus pneumoniae by 3.7 fold, and cloxacillin against Pseudomonas aeruginosa by 3.0 fold. Therefore, lactoferrin potentiates the efficacy of beta-lactam antibiotics against diseases caused by both gram-positive and gram-negative pathogenic bacteria.

[4] = tested on: Klebsiella pneumoniae strain 3K25; assay: Example 5: experimentally infected fed and fasted mice, cefpodoxime with or without native lactoferrin; type: in vivo, strain ICR
Protocol: as §1
Male mice, strain ICR, five weeks old, weighing an average of 21.6 g, were randomly allocated into sixteen groups (n =6). During the next 24 hours, eight groups were allowed free access to diet and water, while the other eight groups were fasted overnight. On the next day, all the mice were injected with 1.4×10^6 CFU/mouse of Klebsiella pneumoniae strain 3K25. The minimal lethal dose of this bacterium is […], and thus the injected dose was 1,000 times greater than the minimal lethal dose. Immediately after the injection, the fed groups were orally given cefpodoxime (10, 5, 2.5, and 1.25 mg/mouse) simultaneously with or without native lactoferrin (0.2 mg/mouse). The fasted groups also were orally given cefpodoxime (10, 5, 2.5, and 1.25 mg/mouse) simultaneously with or without native lactoferrin (0.2 mg/mouse).

[5] = tested on: Klebsiella pneumoniae strain 3K25; assay: Example 1: experimental infection in mice, cefpodoxime with or without native lactoferrin; type: in vivo, strain ICR
Protocol: as §1
Sixty male mice, strain ICR, four weeks of age, body weight 19±1.0 g (mean±the standard deviation) were randomly divided into ten groups (n=6); the first group was assigned to the untreated control, the second group to the lactoferrin treated control group, the third through the sixth groups to the cephalosporin treated controls, and the seventh through the tenth groups to the combined treatment group of cephalosporin and lactoferrin. The mice were intraperitoneally injected with pneumobacillus, Klebsiella pneumoniae strain 3K25, 5×10^6 colony forming units (CFU) per mouse. The antibiotics used were orally active cephalosporin or cefpodoxime, and the bovine lactoferrin was the native one derived from cheese whey with 28.5% iron-saturation. One hour after the injection, the untreated control was orally given 0.2 ml of physiological saline, the second group orally given lactoferrin (0.4 mg/mouse), the third through the sixth groups were orally given cefpodoxime (10, 5, 2.5 and 1.25 mg/mouse) in 0.2 ml of physiological saline, the seventh through the tenth groups orally given the admixture of cefpodoxime (5, 2.5, 1.25, and 0.625 mg/mouse) together with lactoferrin (0.4 mg/mouse) in 0.2 ml of the saline. All the mice were housed in an animal room, allowed free access to commercial pellet diet and water, and observed for one week.

[6] = tested on: Klebsiella pneumoniae strain 3K25; assay: Example 8: dose-response relationship of potentiation of cefpodoxime efficacy by oral lactoferrin; type: in vivo, mice, ddY
Protocol: as §1
The dose-response relationship of the potentiation of the antibiotic efficacy by lactoferrin was determined using the same experimental infection system as described in Example 1. Male ddY mice, five weeks of age, weighing approximate 20.3 g, were randomly allocated into groups (n=10); the first group was assigned to the cefpodoxime control (5 mg/mouse). The mice were intraperitoneally injected with pneumobacillus, Klebsiella pneumoniae strain 3K25, 3×10^5 per mouse. One hour after the injection, the antibiotic cefpodoxime (1, 0.5, 0.25 and 0.125 mg/mouse) was orally given in 0.2 ml of physiological saline.

[7] = tested on: Klebsiella pneumoniae strain 3K25; assay: Example 2: experimental infection in mice, cefpodoxime with or without apolactoferrin; type: in vivo, strain ICR; conditions: for ED50: p.o. 1 h after 5×10^5 CFU/mouse
Protocol: as §1
Sixty male mice, strain ICR, five weeks of age, weighing 19.3±1.1 g (mean body weight±the standard deviation) were randomly allocated into ten groups (n=6), and intraperitoneally injected with pneumobacilli, Klebsiella pneumoniae strain 3K25, 5×10^5 CFU/mouse. One hour after the injection, the first group was orally given 0.2 ml of physiological saline, the second group orally given iron free apolactoferrin (0.4 mg) in 0.2 ml of saline, the third through the sixth groups were orally given cefpodoxime (4, 2, 1, and 0.5 mg/mouse) in 0.2 ml saline, and the seventh through the tenth groups orally given the admixture of cefpodoxime (4, 2, 1, and 0.5 mg/mouse) and apolactoferrin (0.4 mg) in 0.2 ml of saline. Mice were fed ad libitum and observed for a week under the same conditions as described in Example 1.

Escherichia coli #11 = assay: Example 7: experimental infection in mice, cephalexin with or without native lactoferrin; type: in vivo, strain ddY; conditions: po, 168 h, 1.7 × 10^6 CFU/mouse
Protocol: as §1
Male mice, strain ddY, five weeks old, were randomly allocated into groups (n=10), and were intraperitoneally injected with Proteus mirabilis GN79 (1.3×10^6 CFU/mouse) or with Escherichia coli #11 (1.7×10^6 CFU/mouse) or with Klebsiella pneumoniae 3K25 (1.5×10^6 CFU/mouse). The doses are 1,000 times greater than the minimum lethal dose. Immediately after the injection, the first eight groups were orally given ampicillin, the second eight groups were orally given cephalexin, and the third eight groups were orally given cefaclor, respectively, each simultaneously with or without native lactoferrin (1 mg/mouse) in 0.2 ml of distilled water (see Table 7). All the mice were fed ad libitum and observed for one week under the same conditions as described in Example 1.

[8] = tested on: Pseudomonas aeruginosa E8; assay: Example 10: experimental infection in mice, cloxacillin with or without lactoferrin; type: in vivo; conditions: for ED50: 10 MLD i.p.
Protocol: as §1, §2

[9] = tested on: Diplococcus pneumoniae Ch; assay: Example 10: experimental infection in mice, methicillin with or without lactoferrin; type: in vivo; conditions: for ED50: 100 MLD i.p.
Protocol: as §1, §2

[10] = tested on: Streptococcus pyogenes #59; assay: Example 10: experimental infection in mice, penicillin G with or without lactoferrin; type: in vivo; conditions: for ED50: 1000 MLD i.p.
Protocol: as §1, §2

[11] = cefazolin with lactoferrin (0.4 mg/mouse)
[12] = cloxacillin with lactoferrin (0.4 mg/mouse)
[13] = methicillin with lactoferrin (0.4 mg/mouse)
[14] = penicillin G with lactoferrin (0.4 mg/mouse)

SMILES: CC1(C)S[C@@H]2[C@H](NC(=O)[C@H](N)c3ccc(O)cc3)C(=O)N2[C@H]1C(=O)O [amoxicillin]
- ED50 ([1]; amoxicillin control, no lactoferrin): 2.46 mg/mouse
- ED50 ([1]; amoxicillin, lactoferrin (0.5 mg/mouse) dosed +3 (hr)): 0.78 mg/mouse
- ED50 ([1]; amoxicillin, lactoferrin (0.5 mg/mouse) dosed +12 (hr)): 2.48 mg/mouse
- ED50 ([1]; amoxicillin, lactoferrin (0.5 mg/mouse) dosed -1 (day)): 1.39 mg/mouse
- ED50 ([1]; amoxicillin, lactoferrin (0.5 mg/mouse) dosed -2 (day)): 2.46 mg/mouse
- ED50 ([1]; amoxicillin, lactoferrin (0.5 mg/mouse) dosed -3 (day)): 2.46 mg/mouse
- ED50 ([1]; amoxicillin, lactoferrin (0.5 mg/mouse) dosed -5 (day)): 2.14 mg/mouse
- ED50 ([1]; amoxicillin, lactoferrin (0.5 mg/mouse) dosed -6 (hr)): 0.40 mg/mouse
- ED50 ([1]; amoxicillin, lactoferrin (0.5 mg/mouse) dosed -12 (hr)): 0.55 mg/mouse
- ED50 ([1]; amoxicillin, lactoferrin (0.5 mg/mouse) dosed at 0): 0.40 mg/mouse

SMILES: N[C@@H](C(=O)N[C@@H]1C(=O)N2C(C(=O)O)=C(Cl)CS[C@H]12)c1ccccc1 [cefaclor]
- ED50 ([2]; cefaclor alone): 28.5 mg/kg
- ED50 ([2]; cefaclor with lactoferrin (1 mg/mouse)): 10 mg/kg
- ED50 ([3]; cefaclor combined therapy with hololactoferrin (0.4 mg/mouse)): 0.30 mg/mouse
- ED50 ([3]; cefaclor monotherapy): 0.63 mg/mouse
- bacteria in the urine (bacteria in urine; cefaclor 1,200 mg combined with 600 mg apolactoferrin daily): bacteria were no longer detected in the urine
- patients still excreting bacteria (bacteria in urine; cefaclor monotherapy 1,200 mg daily): six patients out of nine
- efficacy of combined therapy versus monotherapy (bacteria in urine; cefaclor with apolactoferrin): significantly more effective

SMILES: Cc1nnc(SCC2=C(C(=O)O)N3C(=O)[C@@H](NC(=O)Cn4cnnn4)[C@H]3SC2)s1 [cefazolin]
- ED50 (Str. epidermids FT; cefazolin control): 0.152 mg/mouse
- potentiation of efficacy by lactoferrin (Str. epidermids FT; [11]): 3.1 fold
- ED50 (Str. epidermids FT; [11]): 0.048 mg/mouse

SMILES: COCC1=C(C(=O)O)N2C(=O)[C@@H](NC(=O)/C(=N\OC)c3csc(N)n3)[C@H]2SC1 [cefpodoxime]
- ED50 ([4]; fasted, cefpodoxime (antibiotic) alone): 39.40 (27.15-56.15) mg/mouse
- ED50 ([4]; fasted, cefpodoxime admixture with lactoferrin (0.2 mg/mouse)): 7.80 (5.65-10.83) mg/mouse
- ED50 ([4]; fed, cefpodoxime (antibiotic) alone): 15.65 (11.45-21.30) mg/mouse
- ED50 ([4]; fed, cefpodoxime admixture with lactoferrin (0.2 mg/mouse)): 4.90 (3.65-6.60) mg/mouse
- ED50 ([5]; cefpodoxime alone, p.o. 1 h after i.p. injection of 5×10^6 CFU/mouse, 95% range not named (6.3-10.0 mg/mouse printed)): 7.93 mg/mouse
- life span versus untreated and lactoferrin controls ([5]; cefpodoxime treated group): significantly prolonged
- ED50 ([5]; cefpodoxime with native lactoferrin (0.4 mg/mouse), p.o. 1 h after injection of 5×10^6 CFU/mouse, range 0.92-1.70 mg/mouse printed): 1.25 mg/mouse
- life span versus untreated and lactoferrin controls ([5]; combined treatment groups of cefpodoxime and lactoferrin): significantly prolonged
- ED50 ([6]; cefpodoxime with lactoferrin 0.00 mg/mouse): 0.473 mg/mouse
- ED50 ([6]; cefpodoxime with lactoferrin 0.005 mg/mouse): 0.382 mg/mouse
- ED50 ([6]; cefpodoxime with lactoferrin 0.05 mg/mouse): 0.104 mg/mouse
- ED50 ([6]; cefpodoxime with lactoferrin 0.5 mg/mouse): 0.104 mg/mouse
- ED50 ([6]; cefpodoxime with lactoferrin 5.0 mg/mouse): 0.104 mg/mouse
- ED50 ([6]; cefpodoxime with lactoferrin 50.0 mg/mouse): 0.104 mg/mouse
- ED50 ([7]; cefpodoxime combined therapy with apolactoferrin (0.4 mg), range 0.19-0.33 mg printed): 0.25 mg/mouse
- ED50 ([7]; cefpodoxime monotherapy, range 0.74-1.32 mg/mouse printed): 0.99 mg/mouse
- recovery of mice ([7]; cefpodoxime with apolactoferrin, combined therapy group): all the mice recovered

SMILES: CC1=C(C(=O)O)N2C(=O)[C@@H](NC(=O)[C@H](N)c3ccccc3)[C@H]2SC1 [cephalexin]
- ED50 (Escherichia coli #11; cephalexin alone): 216 mg/kg
- ED50 (Escherichia coli #11; cephalexin with lactoferrin (1 mg/mouse)): 34.8 mg/kg

SMILES: Cc1onc(-c2ccccc2Cl)c1C(=O)N[C@@H]1C(=O)N2[C@@H]1SC(C)(C)[C@@H]2C(=O)O [cloxacillin]
- ED50 ([8]; cloxacillin control): 3.16 mg/mouse
- potentiation of efficacy by lactoferrin [8, 12]: 3.0 fold
- ED50 [8, 12]: 1.06 mg/mouse

SMILES: COc1cccc(OC)c1C(=O)N[C@@H]1C(=O)N2[C@@H]1SC(C)(C)[C@@H]2C(=O)O [methicillin]
- ED50 ([9]; methicillin control): 0.227 mg/mouse
- potentiation of efficacy by lactoferrin [9, 13]: 3.7 fold
- ED50 [9, 13]: 0.061 mg/mouse

SMILES: CC1(C)S[C@@H]2[C@H](NC(=O)Cc3ccccc3)C(=O)N2[C@H]1C(=O)O [penicillin G]
- ED50 ([10]; penicillin G control): 0.106 mg/mouse
- potentiation of efficacy by lactoferrin [10, 14]: 4.6 fold
- ED50 [10, 14]: 0.023 mg/mouse
